Data set [1] concerns the target T1, Human cytochrome bc1 (Homo sapiens, UniProt P00156). As to the kind of experiment: Human cytochrome bc1 inhibition. The settings on record: read-out: Human cytochrome bc1 EC50. In kind it is biochemical.
The target of data set [2] is T2, P. falciparum cytochrome bc1 (Plasmodium falciparum, UniProt Q02768).
T2 sequence (Q02768 1-376): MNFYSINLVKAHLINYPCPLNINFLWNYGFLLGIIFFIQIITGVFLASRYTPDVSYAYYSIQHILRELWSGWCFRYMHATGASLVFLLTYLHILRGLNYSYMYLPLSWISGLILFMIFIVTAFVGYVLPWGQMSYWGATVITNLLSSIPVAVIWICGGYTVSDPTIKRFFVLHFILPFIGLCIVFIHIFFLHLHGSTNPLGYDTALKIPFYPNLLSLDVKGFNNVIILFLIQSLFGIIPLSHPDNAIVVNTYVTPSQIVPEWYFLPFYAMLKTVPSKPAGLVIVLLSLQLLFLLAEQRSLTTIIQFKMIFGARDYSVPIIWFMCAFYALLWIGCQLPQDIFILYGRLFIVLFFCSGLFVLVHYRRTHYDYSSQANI
The settings on record: read-out: P. falciparum cytochrome bc1 EC50, cited from earlier work.

The next data set is described as follows: in vitro. The data set is classed as in vitro ADME. The note with it: human, plasma.
Another data set has as its system P. yoelii. The experiment in a line: Single dose cure of patent infection in mice. The data set is classed as in vivo. The note with it: dose required to clear patent infection without recrudescence for 30 days post-infection, PEG-400.
Data set [3] deals with P. falciparum D6 (drug sensitive). As to the kind of experiment: 72 h SYBR Green I assay, P. falciparum D6. The data set is classed as cell-based. The settings on record: Plasmodium falciparum, D6, 72 h, read-out: In vitro activity vs. P. falciparum IC50, D6.
Data set [4] deals with P. falciparum Tm90-C2B (Chloroquine and Atovaquone resistant). The experiment in a line: 72 h SYBR Green I assay, P. falciparum Tm90-C2B. The settings on record: Plasmodium falciparum, TM90, 72 h, read-out: In vitro activity vs. P. falciparum IC50, C2B. In kind it is cell-based.
Data set [5] concerns P. falciparum Dd2 (chloroquine resistant). As to the kind of experiment: 72 h SYBR Green I assay, P. falciparum Dd2. The data set is classed as cell-based. The settings on record: Plasmodium falciparum, DD2, 72 h, read-out: In vitro activity vs. P. falciparum IC50, Dd2.
Data set [6] concerns blood-stage Plasmodium yoelii. The experiment in a line: Modified 4-day suppression test in mice. In kind it is in vivo. The note with it: 4-day Peters Test.
The subject of a further data set is HepG2 cells. As to the kind of experiment: Mitochondrial toxicity, CellTiter-Glo ATP in galactose medium. The note with it: 72 hour incubation. The data set is classed as cell-based, human. In general terms: ATP-based viability assays read luminescence as a measure of living cells.
Data set [7] deals with luciferase-transfected P. berghei sporozoites. The note with it: dosed 1 hour prior to sporozoite inoculation; cited from earlier work.
In data set [8] the target is T1, Human cytochrome bc1. The note with it: read-out: Human cytochrome bc1 EC50; ref Nilsen, et al. 14; cited from earlier work.
The subject of data set [9] is luciferase-transfected P. berghei sporozoites. The data set is classed as in vivo, C57BL/6 albino mice. The settings on record: 24 hours prior to sporozoite inoculation.

“And” between values parts separate entries of the source, which are not always exact repeats. Equal entries are not always repeated. Where two headings read alike, the source gives them in different places. Marks after values point to notes of the source that are not given here.

As to `CCOC(=O)Oc1c(-c2ccc(Oc3ccc(OC(F)(F)F)cc3)cc2)c(C)nc2cc(OC)c(Cl)cc12` [ELQ-337], the half-maximal effective concentration (EC50) – broadly, the midpoint of the concentration-response curve – on Human cytochrome bc1 [1] is greater than 10 µM; in data set [2] (ref Miley, et al. 26), 10 µM.

`CC(C)[N+](C)(CCOC(=O)C1c2ccccc2Oc2ccccc21)C(C)C` [Propantheline bromide]: the half-life (usually the time needed for the level to fall by half in the phase considered) at 1 μM in the data set “in vitro” came out at 37.5 min.

For `COc1cc2nc(C)c(-c3ccc(Oc4ccc(OC(F)(F)F)cc4)cc3)c(OCOC(=O)OC(C)C)c2cc1Cl` [ELQ-330], in the data set with P. yoelii, the “In vivo efficacy (oral) P. yoelii Single Dose Cure” value is listed as 5.0 mg/kg/day.

As to `CCN(CC)CCCC(C)Nc1ccnc2cc(Cl)ccc12` (stereo not drawn) [CQ, chloroquine], the “In vivo efficacy (oral) P. yoelii Single Dose Cure” value in the data set with P. yoelii is greater than 64 mg/kg/day. Also, the concentration for half-maximal inhibition (IC50) (usually the concentration that gives 50% inhibition) came out at 0.01 µM in data set [3], 0.098 µM in [4] and 0.14 µM in data set [5]. Moreover, the “In vivo efficacy (oral) P. yoelii NRD (non-recrudescence dose)” value in data set [6] is given as greater than 64 mg/kg/day.

With `COc1cc2[nH]c(C)c(-c3ccc(Oc4ccc(OC(F)(F)F)cc4)cc3)c(=O)c2cc1Cl` [ELQ-300], the “Highest concentration without inhibition or alteration of ATP production” value in the data set with HepG2 cells is no less than 25 µM. In addition, the “Fully protective dose against liver stage infection” value in [7] is reported as no more than 0.03 mg/kg. Besides, the “In vivo efficacy (oral) P. yoelii Single Dose Cure” value in the data set with P. yoelii is >20 ^e mg/kg/day. Also, the concentration for a half-maximal effect (EC50) is greater than 10 µM on Human cytochrome bc1 [8] and 0.00056 µM in data set [2] (ref Nilsen, et al. 14). Further, the “Mice with positive IVIS signal at 24 hours” value in data set [9] (0.1 mg/kg oral) is 2/5. In [9] (0.1 mg/kg oral), the “Mice with positive IVIS signal at 48 hours” value is 5/5. Besides, the “Mice with no parasitemia” value was 4/5 in [9] (1 mg/kg oral) and 5/5 in data set [9] (3 mg/kg oral). In data set [9] (3 and 1 mg/kg oral), the “Parasite burden in the liver (IVIS)” value is “no detectable parasite burden in the liver”. Also, the “In vivo efficacy (oral) P. yoelii NRD (non-recrudescence dose)” value in [6] was 1 mg/kg/day and 1.0 mg/kg/day.

Regarding `CCOC(=O)OC(C)Oc1c(-c2ccc(Oc3ccc(OC(F)(F)F)cc3)cc2)c(C)nc2cc(OC)c(Cl)cc12` (stereo not drawn) [ELQ-387], in the data set on P. yoelii, the “In vivo efficacy (oral) P. yoelii Single Dose Cure” value was determined as 5.0 mg/kg/day.

The record behind these values is PMC5947850 (ACS infectious diseases, 2017).
